Reference: ChEMBL document CHEMBL4342475, “Structure-Bioactivity Relationships of Lapatinib Derived Analogs against Schistosoma mansoni” (ACS Med Chem Lett, 2020)
Values after ≈ are worked out from the molar mass of the structure shown. Active and inactive are the calls of the source. No cut-off for these calls is given here.

Legend:
Schistosoma mansoni [1] = experiment: Antiparasitic activity against Schistosoma mansoni infected in Hamster assessed as severity score at 10 uM incubated for 48 hrs; assay type: functional, organism-based
Schistosoma mansoni [2] = experiment: Antiparasitic activity against Schistosoma mansoni infected in Hamster assessed as severity score at 10 uM incubated for 24 hrs; assay type: functional, organism-based
Schistosoma mansoni [3] = experiment: Antiparasitic activity against Schistosoma mansoni infected in Hamster assessed as severity score at 10 uM incubated for 5 hrs; assay type: functional, organism-based
Schistosoma mansoni [4] = experiment: Antiparasitic activity against Schistosoma mansoni infected in Hamster assessed as severity score at 10 uM incubated for 1 hr; assay type: functional, organism-based
[5] = Cytotoxicity against human HepG2 cells assessed as reduction in cell viability 48 hrs by MTT assay; assay type: cell-based; details: read-out: TC50
[6] = Metabolic stability in human liver microsomes assessed as intrinsic clearance by LC-MS/MS analysis; assay type: ADME, Microsome
[7] = Aqueous solubility of compound incubated for 24 hrs by LC-MS/MS analysis; assay type: physicochemical; details: for solubility: buffer, 24 h
[8] = Protein binding in human plasma at 1 uM by LC-MS/MS analysis; assay type: ADME, cell-free

| Compound | Activity (Schistosoma mansoni [1]) | Activity (Schistosoma mansoni [2]) | Activity (Schistosoma mansoni [3]) | Activity (Schistosoma mansoni [4]) | CC50 at 48 h [5] [µM] | intrinsic clearance [6] [µL/min/mg] | solubility [7] [µM] | PPB [8] [%] | solubility at 24 h ([7]; aqueous) [µM] |
| --- | --- | --- | --- | --- | --- | --- | --- | --- | --- |
| CN1CCN(c2ncc(-c3ccc4c(NCC5CCOCC5)ccnc4c3)cn2)CC1 | inactive | inactive | inactive | inactive |  |  |  |  |  |
| COc1ccc(NC(=O)c2ccc(-c3cnc(N4CCN(C)CC4)nc3)cc2O)cc1Cl |  | inactive | inactive | inactive | 27 |  |  |  |  |
| CN1CCN(c2ncc(-c3ccc4c(NCCN5CCCC5)ccnc4c3)cn2)CC1 | inactive | inactive | inactive | inactive |  |  |  |  |  |
| c1cnc(Nc2ccnc3cc(-c4cnc(N5CCCNCC5)nc4)ccc23)cn1 | inactive | inactive | inactive | inactive | 25 |  |  |  |  |
| Cc1cnc(Nc2ccnc3cc(-c4cnc(N5CCN(C)CC5)nc4)ccc23)cn1 | Active | Active | Active | inactive | 16 |  |  |  |  |
| O=C(O)C1CCCN1c1ncc(-c2ccc3c(Nc4cnccn4)ccnc3c2)cn1 (stereo not drawn) | inactive | inactive | inactive | inactive |  |  |  |  |  |
| CN1CCCN(c2ncc(-c3ccc4c(c3)ncc3c5ccccc5[nH]c43)cn2)CC1 | Active | inactive | inactive | inactive | 7.4 |  |  |  |  |
| COc1ccc(NC(=O)c2ccc(-c3cnc(N4CCCN(C)CC4)nc3)cc2O)cc1Cl | Active | inactive | inactive | inactive |  |  |  |  |  |
| CCCN1CCCN(c2ncc(-c3cc4nccc(Nc5cnccn5)c4cc3C)cn2)CC1 | inactive |  | inactive |  | 7.6 | 300 | 480 (≈ 218 µg/mL) | 88 |  |
| CN1CCCN(c2ncc(-c3ccc4c(Nc5cnccn5)ccnc4c3)cn2)CC1 | inactive | inactive | inactive | inactive |  |  |  |  |  |
| CN1CCCN(S(=O)(=O)c2ccc(-c3ccc4c(Nc5ccc(Cl)cn5)ccnc4c3)cc2)CC1 | inactive | inactive | inactive | inactive | 1.8 |  |  |  |  |
| COc1ccc(NC(=O)c2ccc(-c3cccc(N4CCOCC4)c3)cc2O)cc1Cl | Active |  | inactive |  | 35 |  |  |  |  |
| CCN1CCCN(c2ncc(-c3cc4nccc(Nc5cnccn5)c4cc3C)cn2)CC1 | Active | Active | Active |  | 4.7 | 300 | 790 (≈ 348 µg/mL) | 84 |  |
| CCCN1CCCN(c2ncc(-c3ccc4c(Nc5cnccn5)ccnc4c3)cn2)CC1 | inactive | inactive | inactive | inactive | 17 |  |  |  |  |
| Cc1ccc2[nH]c3c4ccc(-c5cnc(N6CCCN(C)CC6)nc5)cc4ncc3c2c1 | Active | Active | Active |  | 4.7 |  |  |  |  |
| Cc1c(-c2cnc(N3CCN(C)CC3)nc2)ccc2c(Nc3cnccn3)ccnc12 | inactive | inactive | inactive | inactive |  |  |  |  |  |
| CCCN1CCCN(c2ncc(-c3ccc4c(Nc5cnccn5)ccnc4c3C)cn2)CC1 | Active | Active | inactive | inactive | 12 | 300 | 450 (≈ 205 µg/mL) | 94 |  |
| COC(=O)C1CCCN1c1ncc(-c2ccc3c(Nc4cnccn4)ccnc3c2)cn1 (stereo not drawn) | Active |  | inactive | inactive |  |  |  |  |  |
| CCN1CCCN(c2ncc(-c3ccc4c(Nc5cnccn5)ccnc4c3C)cn2)CC1 | inactive | inactive | inactive | inactive | 16 | 160 | 580 (≈ 256 µg/mL) | 88 |  |
| CCCN1CCN(c2ncc(-c3ccc4c(Nc5cnccn5)ccnc4c3)cn2)CC1 | Active | inactive | inactive | inactive |  |  |  |  |  |
| CN1C[C@H]2C[C@@H]1CN2c1ncc(-c2ccc3c(Nc4cnccn4)ccnc3c2)cn1 | inactive | inactive | inactive | inactive |  |  |  |  |  |

| Compound | Activity (Schistosoma mansoni [1]) | Activity (Schistosoma mansoni [2]) | Activity (Schistosoma mansoni [3]) | Activity (Schistosoma mansoni [4]) | CC50 at 48 h [5] [µM] | intrinsic clearance [6] [µL/min/mg] | solubility [7] [µM] | PPB [8] [%] | solubility at 24 h ([7]; aqueous) [µM] |
| --- | --- | --- | --- | --- | --- | --- | --- | --- | --- |
| CN1CCN(c2ncc(-c3ccc4c(Nc5cnccn5)ccnc4c3)cn2)CC1 | inactive | inactive | inactive | inactive |  |  |  |  |  |
| CN(CCNc1ncc(-c2ccc3c(Nc4cnccn4)ccnc3c2)cn1)C(=O)OC(C)(C)C | Active | inactive | inactive | inactive |  |  |  |  |  |
| COc1ccc(Nc2ccnc3cc(-c4cnc(N5CCCN(C)CC5)nc4)ccc23)cc1Cl | Active | Active | inactive | inactive | 6.8 |  |  |  |  |
| Cc1cc2c(Nc3cnccn3)ccnc2cc1-c1cnc(N2CCN(C)CC2)nc1 | Active | Active |  | inactive |  | 130 |  |  | […] |
| CCN1CCCN(c2ncc(-c3ccc4c(Nc5cnccn5)ccnc4c3)cn2)CC1 | inactive | inactive | inactive | inactive | > 36 |  |  |  |  |
| c1cc(-c2ccc3c(c2)ncc2c4ccccc4[nH]c32)cc(N2CCOCC2)c1 | inactive | inactive | inactive | inactive | 40 |  |  |  |  |
| O=C(O)CN1CCN(c2ncc(-c3ccc4c(Nc5cnccn5)ccnc4c3)cn2)CC1 | inactive | inactive | inactive | inactive | > 30 |  |  |  |  |
| CN1CCN(c2ncc(-c3ccc4c(NC5CCC(N(C)C)CC5)ccnc4c3)cn2)CC1 (stereo not drawn) | inactive | inactive | inactive | inactive |  |  |  |  |  |
| COc1ccc(NC(=O)c2ccc(-c3ccc(S(=O)(=O)N4CCN(C)CC4)cc3)cc2O)cc1Cl |  | inactive | inactive | inactive | > 29 |  |  |  |  |
| CN1CCN(c2ncc(-c3ccc4c(N[C@@H]5CCCC[C@H]5O)ccnc4c3)cn2)CC1 | inactive | inactive | inactive | inactive |  |  |  |  |  |
| Cc1cnc(Nc2ccnc3cc(-c4cnc(N5CCCN(C)CC5)nc4)ccc23)cn1 | Active |  | inactive | inactive |  |  |  |  |  |
| CCN1CCN(c2ncc(-c3ccc4c(Nc5cnccn5)ccnc4c3)cn2)CC1 | inactive | inactive | inactive | inactive |  |  |  |  |  |
| CN1CCCN(c2ncc(-c3ccc4c(Nc5ccncn5)ccnc4c3)cn2)CC1 | inactive | inactive | inactive | inactive | > 37 |  |  |  |  |
| COc1ccc(NC(=O)c2ccc(-c3cccc(N4CCOCC4)c3)cc2N)cc1Cl | inactive | inactive | inactive | inactive | 35 |  |  |  |  |
| Cc1c(-c2cnc(N3CCCN(C)CC3)nc2)ccc2c(Nc3cnccn3)ccnc12 | inactive | inactive | inactive | inactive |  | 120 | 860 (≈ 367 µg/mL) | 82 |  |
| COc1ccc(Nc2ccnc3cc(-c4ccc(S(=O)(=O)N5CCCN(C)CC5)cc4)ccc23)cc1Cl | inactive | inactive | inactive | inactive | 11 |  |  |  |  |
| Cc1c(-c2cnc(N3CCCNCC3)nc2)ccc2c(Nc3cnccn3)ccnc12 | Active | Active | inactive | inactive | > 3.7 | 41 | 465 (≈ 192 µg/mL) | 76 |  |
| CN1CCN(c2ncc(-c3ccc4c(NC5CCOCC5)ccnc4c3)cn2)CC1 | inactive | inactive | inactive | inactive |  |  |  |  |  |
| CC(C)(C)OC(=O)N1CCN(c2ncc(-c3ccc4c(Nc5cnccn5)ccnc4c3)cn2)CC1 | inactive | inactive | inactive | inactive |  |  |  |  |  |
| Cc1cc2c(Nc3cnccn3)ccnc2cc1-c1cnc(N2CCCN(C)CC2)nc1 | Active | Active | Active | Active | 7.6 | 260 | 670 (≈ 286 µg/mL) | 82 |  |
